# Reference: EP4722207A1, “OXOISOINDOLINYL-SUBSTITUTED TETRAHYDROPYRIMIDINEDIONE DERIVATIVE AND USE THEREOF” (Gluetacs Therapeutics (Shanghai) Co., Ltd., priority 2023, dated 2024)
# Columns and labels:
# [1] = molecular target: T1, human Cereblon WT GST-tagged protein (Homo sapiens, UniProt Q96SW2); assay: CRBN-binding affinity, CEREBLON BINDING kit (HTRF); settings: for inhibition at 0.5 µM: read-out: Inhibition Rate at 0.5 µM (%); for inhibition at 2 µM: read-out: Inhibition Rate at 2 µM (%)
# T1 construct: purchased CISBIO 64BDCRBNPEH
# T1 sequence (Q96SW2 whole entry): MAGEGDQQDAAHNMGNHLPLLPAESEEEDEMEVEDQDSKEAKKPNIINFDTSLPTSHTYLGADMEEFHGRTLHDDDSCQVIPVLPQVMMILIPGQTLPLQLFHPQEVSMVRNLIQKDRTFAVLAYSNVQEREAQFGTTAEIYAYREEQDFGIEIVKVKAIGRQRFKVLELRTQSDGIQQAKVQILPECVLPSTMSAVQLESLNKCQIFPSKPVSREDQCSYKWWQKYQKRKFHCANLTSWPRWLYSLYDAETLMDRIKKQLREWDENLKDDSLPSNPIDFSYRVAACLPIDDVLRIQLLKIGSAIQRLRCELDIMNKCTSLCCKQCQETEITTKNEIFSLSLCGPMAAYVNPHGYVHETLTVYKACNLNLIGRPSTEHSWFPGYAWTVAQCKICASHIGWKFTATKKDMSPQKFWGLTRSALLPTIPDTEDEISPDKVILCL
# From the text: The CEREBLON BINDING kits (specification: 10,000 tests; product number: Catalog # 64BDCRBNPEH; CISBIO company) was used to determine the CRBN binding ability of the compounds to be tested through a HTRF method (homogeneous time-resolved fluorescence). The specific methods are as follows: • 1. […] Specifically, diluent #9 (1X) solution was used as the diluent, and multiple concentration gradients were set. […] Into the 96-well plate, the diluted test compounds and corresponding detection reagents were added, resulting in final test compound concentrations of 2 µM and 0.5 µM, respectively. […] Then, 2.5 µL of human Cereblon WT GST-tagged protein solution was added to each well. Finally, 5 µL of the thoroughly mixed Thalidomide-Re reagent and GST Eu antibody working solution were added to each of the aforementioned wells. […] The blank control wells were sequentially added with 2.5 µL of diluent #9 (1X) solution, 2.5 µL of binding buffer, and 5 µL of thoroughly mixed Thalidomide-Re reagent and GST Eu antibody working solution. • 4. […] OD 620 nm control is the absorbance value of the blank control well at an emission wavelength of 620 nm. […] OD 620 nm Std0 is the absorbance value of the solvent control well at an emission wavelength of 620 nm.
# MM.1S = assay: Cell viability assay (CellTiter-Meiluncell Luminescent), tumor cell proliferation, MM.1S; settings: Homo sapiens, MM1.S, 96 h; for inhibition at 0.01 µM: read-out: Inhibition Rate at 10 nM (%); for inhibition at 0.5 µM: read-out: Inhibition Rate at 500 nM (%)
# IKZF2 = molecular target: T2, IKZF2 (Homo sapiens, UniProt Q96SW2+Q9UKS7); assay: Western-blot assay, substrate protein degradation in hPBMCs: IKZF2; assay type: cell-based; settings: 24 hours of compound treatment, 50 nM and 500 nM
# T2 construct: effects of the compounds of the present disclosure on the expression of target proteins in cells; endogenous in cells; host or cells: human PBMCs (hPBMCs)
# T2 sequence (Q9UKS7 whole entry): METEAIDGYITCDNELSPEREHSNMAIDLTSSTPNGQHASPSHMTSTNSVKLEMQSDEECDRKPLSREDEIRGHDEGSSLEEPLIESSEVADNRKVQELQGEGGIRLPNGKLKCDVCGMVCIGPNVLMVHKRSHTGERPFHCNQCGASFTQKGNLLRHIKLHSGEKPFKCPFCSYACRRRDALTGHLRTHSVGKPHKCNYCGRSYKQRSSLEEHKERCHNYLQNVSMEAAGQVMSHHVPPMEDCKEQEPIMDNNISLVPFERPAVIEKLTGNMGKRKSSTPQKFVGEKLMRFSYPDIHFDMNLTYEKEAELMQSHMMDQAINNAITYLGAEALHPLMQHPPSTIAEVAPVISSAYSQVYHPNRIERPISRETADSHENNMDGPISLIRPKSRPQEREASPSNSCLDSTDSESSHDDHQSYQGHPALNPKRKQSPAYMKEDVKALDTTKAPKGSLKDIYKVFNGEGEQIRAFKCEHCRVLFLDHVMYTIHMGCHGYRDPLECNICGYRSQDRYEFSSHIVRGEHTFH
# T2 sequence (Q96SW2 whole entry): as the sequence (Q96SW2 whole entry) above
# T2 sequence (Q16531 whole entry partner): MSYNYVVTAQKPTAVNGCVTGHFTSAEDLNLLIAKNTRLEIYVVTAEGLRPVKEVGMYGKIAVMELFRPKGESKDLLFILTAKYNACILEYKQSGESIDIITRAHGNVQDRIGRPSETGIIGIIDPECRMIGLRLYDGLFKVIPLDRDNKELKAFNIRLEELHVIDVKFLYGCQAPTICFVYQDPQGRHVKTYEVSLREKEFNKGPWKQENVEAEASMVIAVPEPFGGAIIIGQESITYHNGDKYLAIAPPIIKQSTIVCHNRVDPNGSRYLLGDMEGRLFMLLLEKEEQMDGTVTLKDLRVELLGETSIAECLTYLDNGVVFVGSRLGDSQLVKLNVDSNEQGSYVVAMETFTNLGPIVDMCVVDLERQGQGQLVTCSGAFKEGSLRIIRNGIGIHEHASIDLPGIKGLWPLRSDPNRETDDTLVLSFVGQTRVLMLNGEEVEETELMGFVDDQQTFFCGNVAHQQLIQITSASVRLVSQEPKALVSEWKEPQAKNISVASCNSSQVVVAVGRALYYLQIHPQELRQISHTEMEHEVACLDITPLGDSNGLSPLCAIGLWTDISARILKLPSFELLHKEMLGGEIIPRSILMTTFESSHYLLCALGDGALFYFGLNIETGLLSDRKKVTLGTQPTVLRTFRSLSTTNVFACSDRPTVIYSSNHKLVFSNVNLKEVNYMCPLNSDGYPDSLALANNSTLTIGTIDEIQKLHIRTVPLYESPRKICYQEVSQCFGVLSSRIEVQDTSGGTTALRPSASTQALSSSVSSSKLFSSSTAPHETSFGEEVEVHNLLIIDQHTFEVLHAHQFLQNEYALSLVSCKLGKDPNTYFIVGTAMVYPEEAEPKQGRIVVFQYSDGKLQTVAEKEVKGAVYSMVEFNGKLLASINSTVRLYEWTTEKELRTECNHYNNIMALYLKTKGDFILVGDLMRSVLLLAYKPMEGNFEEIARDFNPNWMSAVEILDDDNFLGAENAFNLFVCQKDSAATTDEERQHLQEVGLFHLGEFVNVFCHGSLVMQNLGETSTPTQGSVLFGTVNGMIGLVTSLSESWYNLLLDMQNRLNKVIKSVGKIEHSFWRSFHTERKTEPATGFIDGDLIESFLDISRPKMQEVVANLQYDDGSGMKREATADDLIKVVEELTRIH
# H2228 = assay: Cell viability assay (CellTiter-Meiluncell Luminescent), tumor cell proliferation, H2228; settings: Homo sapiens, NCI-H2228, 96 h; for inhibition at 0.01 µM: read-out: Inhibition Rate at 10 nM (%); for inhibition at 0.5 µM: read-out: Inhibition Rate at 500 nM (%)
# Method: (§1) The tumor cells used herein were cultured in a cell culture medium listed in table 2 at 37°C in an incubator with 5% CO2. Prior to experimentation, all cell lines used were correctly identified by STR profiling, and tested negative for mycoplasma contamination using a mycoplasma detection kit through routine screenings.
# (§2) On the following day, the test compounds of the present disclosure were subjected to serial dilution. […] Subsequently, 0.5 µL of the test compound dilution was transferred into the 96-well plate containing the cells, with each well containing 100 µL of cell culture medium. […] Into the 96-well plate, the diluted test compounds and corresponding detection reagents were added, resulting in final test compound concentrations of 500 nM and 10 nM, respectively. The experimental procedure is described below using the diluted 2 µM test compound as an example.
# (§3) After the cells were treated with the compounds of the present disclosure for a specified period, the cell viability assay reagent was added to the culture medium according to the kit's instructions to determine cell viability. […] All controls were treated using the same procedure as the compounds of the present disclosure. The growth inhibition curves for the compounds of the present disclosure were plotted using Prism GraphPad software, and the IC50 values were calculated therefrom.
# CK1α = molecular target: T3, CK1α (Homo sapiens, UniProt P48729+Q96SW2); assay: Western-blot assay, substrate protein degradation in hPBMCs: CK1α; assay type: cell-based; settings: 24 hours of compound treatment, 50 nM and 500 nM
# T3 construct: effects of the compounds of the present disclosure on the expression of target proteins in cells; endogenous in cells; host or cells: human PBMCs (hPBMCs)
# T3 sequence (P48729 whole entry): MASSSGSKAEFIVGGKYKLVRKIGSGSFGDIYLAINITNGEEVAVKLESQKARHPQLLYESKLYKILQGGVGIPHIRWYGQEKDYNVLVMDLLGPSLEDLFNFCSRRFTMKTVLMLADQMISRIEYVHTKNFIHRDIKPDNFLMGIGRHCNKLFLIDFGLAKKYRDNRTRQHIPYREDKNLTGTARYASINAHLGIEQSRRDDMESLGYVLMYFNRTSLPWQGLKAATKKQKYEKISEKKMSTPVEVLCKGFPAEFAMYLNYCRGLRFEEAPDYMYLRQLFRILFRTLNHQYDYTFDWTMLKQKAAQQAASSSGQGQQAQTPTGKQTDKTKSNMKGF
# T3 sequence (Q96SW2 whole entry): as the sequence (Q96SW2 whole entry) above
# T3 sequence (Q16531 whole entry partner): as the sequence (Q16531 whole entry partner) above
# IKZF3 = molecular target: T4, IKZF3 (Homo sapiens, UniProt Q96SW2+Q9UKT9); assay: Western-blot assay, substrate protein degradation in hPBMCs: IKZF3; assay type: cell-based; settings: 24 hours of compound treatment, 50 nM and 500 nM
# T4 construct: effects of the compounds of the present disclosure on the expression of target proteins in cells; endogenous in cells; host or cells: human PBMCs (hPBMCs)
# IKZF1 = molecular target: T5, IKZF1 (Homo sapiens, UniProt Q13422+Q96SW2); assay: Western-blot assay, substrate protein degradation in hPBMCs: IKZF1; assay type: cell-based; settings: 24 hours of compound treatment, 50 nM and 500 nM
# T5 construct: effects of the compounds of the present disclosure on the expression of target proteins in cells; endogenous in cells; host or cells: human PBMCs (hPBMCs)
# T5 sequence (Q13422 whole entry): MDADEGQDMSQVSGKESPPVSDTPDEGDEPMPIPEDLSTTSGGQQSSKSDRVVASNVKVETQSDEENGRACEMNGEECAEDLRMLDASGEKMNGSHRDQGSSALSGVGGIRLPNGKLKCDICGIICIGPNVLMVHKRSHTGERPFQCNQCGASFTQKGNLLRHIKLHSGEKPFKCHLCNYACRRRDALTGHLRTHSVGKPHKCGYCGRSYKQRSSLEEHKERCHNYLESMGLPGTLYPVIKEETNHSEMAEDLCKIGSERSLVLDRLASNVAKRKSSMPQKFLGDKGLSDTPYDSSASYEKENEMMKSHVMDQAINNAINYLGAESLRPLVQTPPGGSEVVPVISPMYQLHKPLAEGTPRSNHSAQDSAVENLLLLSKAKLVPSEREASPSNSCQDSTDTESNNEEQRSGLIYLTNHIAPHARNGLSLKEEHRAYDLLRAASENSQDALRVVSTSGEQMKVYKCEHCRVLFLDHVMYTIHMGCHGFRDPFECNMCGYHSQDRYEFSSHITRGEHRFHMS
# T5 sequence (Q96SW2 whole entry): as the sequence (Q96SW2 whole entry) above
# T5 sequence (Q16531 whole entry partner): as the sequence (Q16531 whole entry partner) above
# H292 = assay: Cell viability assay (CellTiter-Meiluncell Luminescent), tumor cell proliferation, H292; settings: Homo sapiens, NCI-H292, 96 h; for inhibition at 0.01 µM: read-out: Inhibition Rate at 10 nM (%); for inhibition at 0.5 µM: read-out: Inhibition Rate at 500 nM (%)
# MV-4-11 = assay: Cell viability assay (CellTiter-Meiluncell Luminescent), tumor cell proliferation, MV-4-11; settings: Homo sapiens, MV4-11, 96 h; for inhibition at 0.01 µM: read-out: Inhibition Rate at 10 nM (%); for inhibition at 0.5 µM: read-out: Inhibition Rate at 500 nM (%)
# Method: as §1, §2, §3
# WEE1 = molecular target: T6, WEE1 (Homo sapiens, UniProt P30291+Q96SW2); assay: Western-blot assay, substrate protein degradation in hPBMCs: WEE1; assay type: cell-based; settings: 24 hours of compound treatment, 50 nM and 500 nM
# T6 construct: effects of the compounds of the present disclosure on the expression of target proteins in cells; endogenous in cells; host or cells: human PBMCs (hPBMCs)
# T6 sequence (P30291 whole entry): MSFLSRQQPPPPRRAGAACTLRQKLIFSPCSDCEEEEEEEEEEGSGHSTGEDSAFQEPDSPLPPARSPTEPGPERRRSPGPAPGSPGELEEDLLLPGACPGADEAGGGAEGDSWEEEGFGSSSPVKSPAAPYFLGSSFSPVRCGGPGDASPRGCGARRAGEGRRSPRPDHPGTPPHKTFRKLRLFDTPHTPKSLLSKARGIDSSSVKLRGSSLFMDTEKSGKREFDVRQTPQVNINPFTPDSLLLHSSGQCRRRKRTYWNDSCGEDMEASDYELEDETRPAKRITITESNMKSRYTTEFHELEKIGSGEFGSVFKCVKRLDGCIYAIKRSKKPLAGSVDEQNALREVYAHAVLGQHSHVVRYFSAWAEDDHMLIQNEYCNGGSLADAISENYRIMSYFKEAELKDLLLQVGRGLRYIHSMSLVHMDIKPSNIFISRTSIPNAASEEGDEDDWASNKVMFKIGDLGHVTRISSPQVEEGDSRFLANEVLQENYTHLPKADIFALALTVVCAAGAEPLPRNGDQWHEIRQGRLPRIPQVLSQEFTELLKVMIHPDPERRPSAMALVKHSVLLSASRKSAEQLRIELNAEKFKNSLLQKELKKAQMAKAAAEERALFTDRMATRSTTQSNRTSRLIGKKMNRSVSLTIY
# T6 sequence (Q96SW2 whole entry): as the sequence (Q96SW2 whole entry) above
# T6 sequence (Q16531 whole entry partner): as the sequence (Q16531 whole entry partner) above
# GSPT1 = molecular target: T7, GSPT1 (Homo sapiens, UniProt P15170+Q96SW2); assay: Western-blot assay, substrate protein degradation in hPBMCs: GSPT1; assay type: cell-based; settings: 24 hours of compound treatment, 50 nM and 500 nM
# T7 construct: effects of the compounds of the present disclosure on the expression of target proteins in cells; endogenous in cells; host or cells: human PBMCs (hPBMCs)
# T7 sequence (P15170 whole entry): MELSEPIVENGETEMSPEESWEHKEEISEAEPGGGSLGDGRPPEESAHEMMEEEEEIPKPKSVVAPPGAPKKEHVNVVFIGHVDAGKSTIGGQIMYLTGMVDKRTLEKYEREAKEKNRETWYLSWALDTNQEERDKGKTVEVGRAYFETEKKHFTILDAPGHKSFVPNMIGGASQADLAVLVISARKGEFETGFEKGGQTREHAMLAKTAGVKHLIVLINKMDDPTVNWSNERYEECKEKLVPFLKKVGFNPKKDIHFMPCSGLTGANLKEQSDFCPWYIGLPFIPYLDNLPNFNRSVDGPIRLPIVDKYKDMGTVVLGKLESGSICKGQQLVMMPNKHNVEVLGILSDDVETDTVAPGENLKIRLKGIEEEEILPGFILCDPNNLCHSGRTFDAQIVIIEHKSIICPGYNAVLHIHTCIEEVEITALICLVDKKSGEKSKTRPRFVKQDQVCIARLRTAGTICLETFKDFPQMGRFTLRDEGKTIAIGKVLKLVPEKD
# T7 sequence (Q96SW2 whole entry): as the sequence (Q96SW2 whole entry) above
# T7 sequence (Q16531 whole entry partner): as the sequence (Q16531 whole entry partner) above
# MDA-MB-231 = assay: Cell viability assay (CellTiter-Meiluncell Luminescent), tumor cell proliferation, MDA-MB-231; settings: Homo sapiens, MDA-MB-231, 96 h; for inhibition at 0.01 µM: read-out: Inhibition Rate at 10 nM (%); for inhibition at 0.5 µM: read-out: Inhibition Rate at 500 nM (%)
# Method: as §1, §2, §3
Structure (SMILES),IC50 ([1]; 3 hours at room temperature) [nM],"IC50 (MM.1S; read-out: inhibitory activity (IC50, nM) against tumor cells proliferation, MM.1S) [nM]",substrate protein remaining % IKZF2 (IKZF2),inhibition at 0.01 µM (H2228) [%],inhibition at 0.5 µM (H2228) [%],substrate protein remaining % CK1α (CK1α),substrate protein remaining % IKZF3 (IKZF3),substrate protein remaining % IKZF1 (IKZF1),inhibition at 0.5 µM [1] [%],inhibition at 2 µM [1] [%],inhibition at 0.01 µM (H292) [%],inhibition at 0.5 µM (H292) [%],inhibition at 0.01 µM (MV-4-11) [%],inhibition at 0.5 µM (MV-4-11) [%],inhibition at 0.01 µM (MM.1S) [%],inhibition at 0.5 µM (MM.1S) [%],substrate protein remaining % WEE1 (WEE1),substrate protein remaining % GSPT1 (GSPT1),inhibition at 0.01 µM (MDA-MB-231) [%],inhibition at 0.5 µM (MDA-MB-231) [%]
"N#Cc1ccc(N2CCN(Cc3ccc(COc4cccc5c4CN(N4CCC(=O)NC4=O)C5=O)cc3)CC2)c(F)c1 [GT-06132, 4-(4-(4-(((2-(2,4-dioxotetrahydropyrimidin-1(2H)-yl)-1-oxoisoindolin-4-yl)oxy)methyl)benzyl)piperazin-1-yl)-3-fluorobenzonitrile]",1000 to 1500,100 to 300,–,–,–,–,–,–,–,–,–,–,–,–,–,–,–,–,–,–
"O=C1CCN(N2Cc3cc(CN4CCN(c5ncnc6scc(-c7ccccc7)c56)CC4)ccc3C2=O)C(=O)N1 [GT-08065, 1-(1-oxo-5-((4-(5-phenylthieno[2,3-d]pyrimidin-4-yl)piperazin-1-yl)methyl)isoindolin-2-yl)dihydropyrimidine-2,4(1H,3H)-dione]",–,–,A (0% ≤ substrate protein remaining % ≤ 80%),20 to 25,25 to 30,B (80%< substrate protein remaining %≤ 100%),B (80%< substrate protein remaining %≤ 100%),B (80%< substrate protein remaining %≤ 100%),20 to 30,60 to 80,20 to 40,20 to 40,30 to 40,10 to 18,20 to 30,20 to 30,B (80%< substrate protein remaining %≤ 100%),B (80%< substrate protein remaining %≤ 100%),–,–
"Cc1nc(N2CCN(Cc3ccc4c(c3)CN(N3CCC(=O)NC3=O)C4=O)CC2)c2c(-c3ccccc3)csc2n1 [GT-08066, 1-(5-((4-(2-methyl-5-phenylthieno[2,3-d]pyrimidin-4-yl)piperazin-1-yl)methyl)-1-oxoisoindolin-2-yl)dihydropyrimidine-2,4(1H,3H)-dione]",–,–,A (0% ≤ substrate protein remaining % ≤ 80%),–,–,A (0% ≤ substrate protein remaining % ≤ 80%),B (80%< substrate protein remaining %≤ 100%),B (80%< substrate protein remaining %≤ 100%),20 to 30,60 to 80,20 to 40,20 to 40,18 to 25,10 to 18,–,–,B (80%< substrate protein remaining %≤ 100%),B (80%< substrate protein remaining %≤ 100%),15 to 18,15 to 18
"O=C1CCN(N2Cc3cc(CN4CCN(c5ncnc6sc7c(c56)CCC7)CC4)ccc3C2=O)C(=O)N1 [GT-08079, 1-(5-((4-(6,7-dihydro-5H-cyclopenta[4,5]thieno[2,3-d]pyrimidin-4-yl)piperazin-1-yl)methyl)-1-oxoisoindolin-2-yl)dihydropyrimidine-2,4(1H,3H)-dione]",–,–,B (80%< substrate protein remaining %≤ 100%),15 to 20,20 to 25,A (0% ≤ substrate protein remaining % ≤ 80%),B (80%< substrate protein remaining %≤ 100%),B (80%< substrate protein remaining %≤ 100%),20 to 30,53 to 60,20 to 40,20 to 40,40 to 60,40 to 60,–,–,A (0% ≤ substrate protein remaining % ≤ 80%),A (0% ≤ substrate protein remaining % ≤ 80%),18 to 25,10 to 15
"Cc1nc(N2CCN(Cc3ccc4c(c3)CN(N3CCC(=O)NC3=O)C4=O)CC2)c2c3c(sc2n1)CCC3 [GT-08080, 1-(5-((4-(2-methyl-6,7-dihydro-5H-cyclopenta[4,5]thieno[2,3-d]pyrimidin-4-yl)piperazin-1-yl)methyl)-1-oxoisoindolin-2-yl)dihydropyrimidine-2,4(1H,3H)-dione]",–,–,B (80%< substrate protein remaining %≤ 100%),30 to 40,20 to 25,A (0% ≤ substrate protein remaining % ≤ 80%),B (80%< substrate protein remaining %≤ 100%),B (80%< substrate protein remaining %≤ 100%),20 to 30,53 to 60,40 to 60,20 to 40,–,–,–,–,A (0% ≤ substrate protein remaining % ≤ 80%),A (0% ≤ substrate protein remaining % ≤ 80%),18 to 25,15 to 18
"O=C1CCN(N2Cc3cc(CN4CC=C(c5ncnc6sc(-c7ccccc7)cc56)CC4)ccc3C2=O)C(=O)N1 [GT-08173, 1-(1-oxo-5-((4-(6-phenylthieno[2,3-d]pyrimidin-4-yl)-3,6-dihydropyridin-1(2H)-yl)methyl)isoindolin-2-yl)dihydropyrimidine-2,4(1H,3H)-dione]",–,–,–,5 to 10,40 to 60,–,–,–,20 to 30,53 to 60,–,–,10 to 18,80 to 100,-5 to 0,80 to 100,–,–,10 to 15,60 to 80
"O=C1CCN(N2Cc3cc(CN4CC=C(c5ncnc6scc(-c7ccccc7)c56)CC4)ccc3C2=O)C(=O)N1 [GT-08174, 1-(1-oxo-5-((4-(5-phenylthieno[2,3-d]pyrimidin-4-yl)-3,6-dihydropyridin-1(2H)-yl)methyl)isoindolin-2-yl)dihydropyrimidine-2,4(1H,3H)-dione]",–,–,–,15 to 20,20 to 25,–,–,–,20 to 30,53 to 60,10 to 15,20 to 40,25 to 30,10 to 18,–,–,–,–,18 to 25,25 to 40
"Cc1nc(C2=CCN(Cc3ccc4c(c3)CN(N3CCC(=O)NC3=O)C4=O)CC2)c2c(-c3ccccc3)csc2n1 [GT-08176, 1-(5-((4-(2-methyl-5-phenylthieno[2,3-d]pyrimidin-4-yl)-3,6-dihydropyridin-1(2H)-yl)methyl)-1-oxoisoindolin-2-yl)dihydropyrimidine-2,4(1H,3H)-dione]",–,–,–,–,–,–,–,–,30 to 40,60 to 80,15 to 20,20 to 40,60 to 80,30 to 40,–,–,–,–,–,–
"Cc1nc(C2=CCN(Cc3ccc4c(c3)CN(N3CCC(=O)NC3=O)C4=O)CC2)c2c3c(sc2n1)CCCC3 [GT-08177, 1-(5-((4-(2-methyl-5,6,7,8-tetrahydrobenzo[4,5]thieno[2,3-d]pyrimidin-4-yl)-3,6-dihydropyridin-1(2H)-yl)methyl)-1-oxoisoindolin-2-yl)dihydropyrimidine-2,4(1H,3H)-dione]",–,–,–,–,–,–,–,–,20 to 30,53 to 60,10 to 15,10 to 15,40 to 60,30 to 40,–,–,–,–,–,–
